Several values for one entry are separate records, joined by “and”; a condition that tells them apart may be missing. Equal values may be shown once. Read-outs that look alike come from different tables or passages of the source.
Assays:
epidermal DNA synthesis [1] = experiment: Inhibition of epidermal DNA synthesis in the mouse in vivo after topical application and UV-A irradiation; conditions: topical 50 μg/cm^2, UV-A 9 J/cm^2, ± S.E.
Description: Inhibition of epidermal DNA synthesis in the mouse "in vivo"
after topical application (50 μg/cm^2) of the compound and

epidermal DNA synthesis [2] = experiment: Inhibition of epidermal DNA synthesis in the mouse in vivo after oral administration and UV-A irradiation; conditions: light or radiation study, read-out: % inhibition of epidermal DNA synthesis
Description: The strong activity of the 6-alkylangelicins according to the invention in inhibiting the epidermal DNA synthesis of mice after oral administration (see Table VI) allows to consider these compounds effective also by oral administration in humans and UV-A irradiation.
Inhibition of epidermal DNA synthesis
in the mouse "in vivo" after oral
administration of the compound (250 mg/kg)
and UV-A irradiation (9 J/cm^2) (a).
(§1) (a) Determined according to Bordin et al., Il Farmaco, Ed.Sc., 36, 506,

DNA [3] = experiment: Binding parameters of the complexes between 6-alkylangelicins and DNA (in the dark); set-up: K values: unit not given here; conditions: for -n (number of nucleotides occluded by one bound molecule) / l/-n (frequency of binding sites, ligands bound per nucleotide): according to Mc Ghee and Von Hippel; for K values: complex with DNA
From the text: (§2) The 6-alkylangelicins show a strong affinity with DNA in the dark, thus forming molecular intercalated complexes; moreover the 6-methylangelicins complexed to DNA by irradiation bind very strongly to the macromolecule, inducing only monofunctional lesions (Table I).
(§3) Binding parameters of the complexes between 6-alkylangelicins and DNA
^a According to Mc Ghee and Von Hippel, (J.Mol. Biol., 86, 469, 1974)
-n is defined here as the number of nucleotides occluded by one bound
molecule of angelicin derivative.
^b l/-n defines, according to Mc Ghee and Von Hippel, the frequency o
binding sites; in other words, the number of ligands bound per nucleotide
and can be considered analogous to the "-n" value obtained by the classic
Scratchard method (Ann. N.Y. Acad. Sci., 51, 660, 1949).

DNA [4] = experiment: Rate constant of photoreaction with DNA; type: biochemical; conditions: irradiation
From the text: as §2, §3
and rate constant of their photoreactions with the macromolecule.

[5] = system: Ehrlich ascites tumor cells; experiment: Inhibition of DNA synthesis in Ehrlich ascites tumor cells; type: cell-based; conditions: relative to angelicin = 100
From the text: (§4) The 6-alkylangelicins show a strong antiproliferative activity in Ehrlich ascites tumor cells (Table II) and on the skin of mice in terms of DNA synthesis inhibition (Table III). These compounds are practically unable to induce skin phototoxicity on albino guinea-pig skin (Table II).
as §1

albino guinea-pig skin = experiment: Skin erythemogenic activity / skin phototoxicity on albino guinea-pig skin; conditions: in vivo
From the text: as §4, §1

psoriatic lesions = conditions: for % clearance: topical 5 μg/cm^2 + UV-A (maximal dose 4-10 J/cm^2), 9-15 treatments; for dark pigmentation of human skin: treated area, patients
Description: In the treated patients various areas 4×4 cm of the affected skin were used:
a) in the first area an ethanolic solution (0.1% W/V) of the compound under investigation, was applied until a concentration of 5 μg/cm^2 was reached and left to evaporate by the heat of the body (or by hot air stream).
c) a third area was treated in the same way as area a), but was not irradiated with UV-A;
d) a fourth area was irradiated as in a) with the same dose of UV-A light in the absence of any compound.

E. coli WP2-uvr A = type: cell-based
Description: Mutagenic activity of 6-alkylangelicins on E. coli
WP2-uvr A by irradiation with UV-A (a).
(a) The test was performed at the furocoumarin concentration of 5 μg/m
according to Venturini et al., Chem. Biol. Interactions, 30, 203, 1980.

[6] = Acute toxicity (LD50) in mice; conditions: mouse, in vivo
DNA [7] = conditions: reference compound; data from Dall'Acqua et al. 1979; cited from earlier work
DNA [8] = conditions: reference compound; data from Dall'Acqua et al. 1979; cited from earlier work; remark: listed apart in the source
mice = experiment: Acute toxicity (LD50) in mice; conditions: mice, per os; 6,4'-dimethylangelicin in methylcellulose suspension
[9] = mouse in vivo, oral 250 mg/kg, UV-A 9 J/cm^2, ± S.E.
[10] = UV-A irradiation time 10 seconds
[11] = UV-A irradiation time 20 seconds
[12] = UV-A irradiation time 30 seconds
[13] = UV-A irradiation time 60 seconds

Structure (SMILES): Cc1c(C)c2occc2c2oc(=O)ccc12 [6,5-dimethylangelicin]
- % inhibition of epidermal DNA synthesis (epidermal DNA synthesis [1]): 52.83 ± 2.3%
- inhibition at 250 mg/kg (epidermal DNA synthesis [2]; [9]): 50.1 ± 19%

Structure (SMILES): Cc1cc(=O)oc2c1cc(C)c1occ(C)c12 [6,4,4'-trimethylangelicin]
- -n (number of nucleotides occluded by one bound molecule) (DNA [3]): 10.99
- l/-n (frequency of binding sites, ligands bound per nucleotide) (DNA [3]): 0.091 ± 0.0045
- K values (DNA [3]): 10,100 ± 1190
- rate constant of photoreaction with DNA (DNA [4]): 13.30 min^-1 × 10^2
- Relative activity (inhibition of DNA synthesis in Ehrlich ascites tumor cells) [5]: 41666
- skin erythemogenic activity (albino guinea-pig skin): -
- skin phototoxicity on guinea-pig skin (albino guinea-pig skin): absence of skin phototoxicity on guinea-pig skin
- inhibition at 250 mg/kg (epidermal DNA synthesis [2]; [9]): 67.7 ± 8.2%
- % clearance (psoriatic lesions; single psoriatic patients, listed as 6,4,4'-TMA): 100% and 95% and 90%
- dark pigmentation of human skin (psoriatic lesions): appears more active
- genotoxicity, mutagenic activity (E. coli WP2-uvr A): low genotoxicity
- no of mutants per 10^6 survivors (E. coli WP2-uvr A; [10]): 0.84 mutants per 10^6 survivors
- no of mutants per 10^6 survivors (E. coli WP2-uvr A; [11]): 1.18 mutants per 10^6 survivors
- no of mutants per 10^6 survivors (E. coli WP2-uvr A; [12]): 1.24 mutants per 10^6 survivors
- no of mutants per 10^6 survivors (E. coli WP2-uvr A; [13]): 1.98 mutants per 10^6 survivors

Structure (SMILES): Cc1cc2c(o1)c(C)c(C)c1ccc(=O)oc12 [6,5,5'-trimethylangelicin]
- -n (number of nucleotides occluded by one bound molecule) (DNA [3]): 14.29
- l/-n (frequency of binding sites, ligands bound per nucleotide) (DNA [3]): 0.070 ± 0.0035
- K values (DNA [3]): 3,730 ± 339
- rate constant of photoreaction with DNA (DNA [4]): 2.30 min^-1 × 10^2
- % inhibition of epidermal DNA synthesis (epidermal DNA synthesis [1]): 36.01 ± 11.7%
- inhibition at 250 mg/kg (epidermal DNA synthesis [2]; [9]): 60.6 ± 14.1%

Structure (SMILES): Cc1cc(=O)oc2c1cc(C)c1occc12 [6,4-dimethylangelicin]
- -n (number of nucleotides occluded by one bound molecule) (DNA [3]): 15.87
- l/-n (frequency of binding sites, ligands bound per nucleotide) (DNA [3]): 0.063 ± 0.003
- K values (DNA [3]): 2,990 ± 232
- rate constant of photoreaction with DNA (DNA [4]): 5.23 min^-1 × 10^2
- Relative activity (inhibition of DNA synthesis in Ehrlich ascites tumor cells) [5]: 625
- skin erythemogenic activity (albino guinea-pig skin): -
- % inhibition of epidermal DNA synthesis (epidermal DNA synthesis [1]): 47.05 ± 4.3%
- inhibition at 250 mg/kg (epidermal DNA synthesis [2]; [9]): 58.4 ± 13%
- no of mutants per 10^6 survivors (E. coli WP2-uvr A; [10]): 0.24 mutants per 10^6 survivors
- no of mutants per 10^6 survivors (E. coli WP2-uvr A; [11]): 0.7 mutants per 10^6 survivors
- no of mutants per 10^6 survivors (E. coli WP2-uvr A; [12]): 0.99 mutants per 10^6 survivors
- no of mutants per 10^6 survivors (E. coli WP2-uvr A; [13]): 1.83 mutants per 10^6 survivors

Structure (SMILES): Cc1cc2c(o1)c(C)cc1ccc(=O)oc12 [6,5'-dimethylangelicin]
- -n (number of nucleotides occluded by one bound molecule) (DNA [3]): 12.82
- l/-n (frequency of binding sites, ligands bound per nucleotide) (DNA [3]): 0.078 ± 0.004
- K values (DNA [3]): 1,975 ± 136
- rate constant of photoreaction with DNA (DNA [4]): 3.00 min^-1 × 10^2
- Relative activity (inhibition of DNA synthesis in Ehrlich ascites tumor cells) [5]: 210
- skin erythemogenic activity (albino guinea-pig skin): -
- inhibition at 250 mg/kg (epidermal DNA synthesis [2]; [9]): 22.5 ± 12%

Structure (SMILES): Cc1cc2ccc(=O)oc2c2ccoc12 [6-methylangelicin]
- -n (number of nucleotides occluded by one bound molecule) (DNA [3]): 20.83
- l/-n (frequency of binding sites, ligands bound per nucleotide) (DNA [3]): 0.048 ± 0.002
- K values (DNA [3]): 925 ± 64
- rate constant of photoreaction with DNA (DNA [4]): 3.60 min^-1 × 10^2
- Relative activity (inhibition of DNA synthesis in Ehrlich ascites tumor cells) [5]: 95
- skin erythemogenic activity (albino guinea-pig skin): -
- % inhibition of epidermal DNA synthesis (epidermal DNA synthesis [1]): 29.25 ± 13.3%
- inhibition at 250 mg/kg (epidermal DNA synthesis [2]; [9]): 19.6 ± 9.2%

Structure (SMILES): Cc1cc2c(o1)c(C)cc1c(C)cc(=O)oc12 [6,4,5'-trimethylangelicin]
- -n (number of nucleotides occluded by one bound molecule) (DNA [3]): 22.22
- l/-n (frequency of binding sites, ligands bound per nucleotide) (DNA [3]): 0.045 ± 0.002
- K values (DNA [3]): 3,310 ± 281
- rate constant of photoreaction with DNA (DNA [4]): 7.02 min^-1 × 10^2
- Relative activity (inhibition of DNA synthesis in Ehrlich ascites tumor cells) [5]: 646
- skin erythemogenic activity (albino guinea-pig skin): -
- inhibition at 250 mg/kg (epidermal DNA synthesis [2]; [9]): 36.8 ± 8.5%
- no of mutants per 10^6 survivors (E. coli WP2-uvr A; [10]): 0.62 mutants per 10^6 survivors
- no of mutants per 10^6 survivors (E. coli WP2-uvr A; [11]): 0.91 mutants per 10^6 survivors
- no of mutants per 10^6 survivors (E. coli WP2-uvr A; [12]): 1.23 mutants per 10^6 survivors
- no of mutants per 10^6 survivors (E. coli WP2-uvr A; [13]): 1.93 mutants per 10^6 survivors

Structure (SMILES): O=c1ccc2ccc3occc3c2o1 [angelicin]
- -n (number of nucleotides occluded by one bound molecule) (DNA [3]): 15.87
- l/-n (frequency of binding sites, ligands bound per nucleotide) (DNA [3]): 0.063 ± 0.003
- K values (DNA [3]): 560
- rate constant of photoreaction with DNA (DNA [4]): 1.10 min^-1 × 10^2
- % inhibition of epidermal DNA synthesis (epidermal DNA synthesis [1]): 17.5 ± 2.5%
- inhibition at 250 mg/kg (epidermal DNA synthesis [2]; Mus musculus, po): 28 ± 2%

Structure (SMILES): Cc1cc2ccc(=O)oc2c2c(C)coc12 [6,4'-dimethylangelicin]
- -n (number of nucleotides occluded by one bound molecule) (DNA [3]): 16.39
- l/-n (frequency of binding sites, ligands bound per nucleotide) (DNA [3]): 0.061 ± 0.003
- K values (DNA [3]): 6,300 ± 541
- rate constant of photoreaction with DNA (DNA [4]): 9.90 min^-1 × 10^2
- Relative activity (inhibition of DNA synthesis in Ehrlich ascites tumor cells) [5]: 1096
- skin erythemogenic activity (albino guinea-pig skin): -
- skin phototoxicity on guinea-pig skin (albino guinea-pig skin): absence of skin phototoxicity on guinea-pig skin
- % inhibition of epidermal DNA synthesis (epidermal DNA synthesis [1]): 36.56 ± 3.9%
- inhibition at 250 mg/kg (epidermal DNA synthesis [2]; [9]): 49.2 ± 8%
- pigmental capacity (psoriatic lesions; single psoriatic patients, topical 5 μg/cm^2 + UV-A): +
- % clearance (psoriatic lesions; single psoriatic patients, listed as 6,4'-DMA): 100% and 90%
- dark pigmentation of human skin (psoriatic lesions): evident dark pigmentation in the treated area, less pronounced than that induced by 8-MOP
- genotoxicity, mutagenic activity (E. coli WP2-uvr A): low genotoxicity
- no of mutants per 10^6 survivors (E. coli WP2-uvr A; [10]): 0.96 mutants per 10^6 survivors
- no of mutants per 10^6 survivors (E. coli WP2-uvr A; [11]): 1.76 mutants per 10^6 survivors
- no of mutants per 10^6 survivors (E. coli WP2-uvr A; [12]): 2.63 mutants per 10^6 survivors
- LD50 ([6]; ip): 750 mg/kg
- LD50 ([6]; po): > 2000 mg/kg

Structure (SMILES): COc1c2occc2cc2ccc(=O)oc12 [8-MOP, 8-methoxypsoralen, reference compound]
- skin erythemogenic activity (albino guinea-pig skin): ++
- % inhibition of epidermal DNA synthesis (epidermal DNA synthesis [1]): 61.0 ± 1.6%
- inhibition at 250 mg/kg (epidermal DNA synthesis [2]; [9]): 39.1 ± 3.7%
- induction of skin erythema in humans (psoriatic lesions; human, in vivo): severe phototoxic response
- no of mutants per 10^6 survivors (E. coli WP2-uvr A; [10]): 0.4 mutants per 10^6 survivors
- no of mutants per 10^6 survivors (E. coli WP2-uvr A; [11]): 1.15 mutants per 10^6 survivors
- no of mutants per 10^6 survivors (E. coli WP2-uvr A; [12]): 1.5 mutants per 10^6 survivors
- no of mutants per 10^6 survivors (E. coli WP2-uvr A; [13]): 3.1 mutants per 10^6 survivors
- no of mutants per 10^6 survivors (E. coli WP2-uvr A; UV-A irradiation time 90 seconds): 7.0 mutants per 10^6 survivors
- -n (number of nucleotides occluded by one bound molecule) (DNA [7]): 7.81
- K values (DNA [7]): 736
- l/-n (frequency of binding sites, ligands bound per nucleotide) (DNA [7]): 0.128
- rate constant of photoreaction with DNA (DNA [8]): 3.10 min^-1 × 10^2
- LD50 ([6]; ip): 300 mg/kg
- LD50 (mice): 0.75 g/kg

From patent publication US5179217A, “Method of preparing photochemotherapic alkylangelicin compounds” (priority 1982, dated 1993)
